Like-named read-outs stand apart in the source and are kept apart here.
How the values were obtained:
[1] = test system: BCL6 reporter construct (3xBCL6-TK-Luc) in SuDHL4 cells; assay: Cell-based luciferase assay
Outline: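 SuDHL4 cells stably carrying a 3×BCL6-site TK-promoter firefly luciferase reporter, seeded at 15,000 cells/well, were dosed over a 10-point range (top 10 uM) and grown two days at 37 °C, 5% CO2. Luminescence then read after adding neolite reagent at room temperature.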

BCL6 BTB domain = BCL6 BTB domain (Homo sapiens (Human), UniProt P41182); assay: Surface plasmon resonance (SPR) assay; type: binding; conditions: BCL6 BTB domain captured on SA chip, single cycle kinetics
Karpas422 cells = assay: Tumor cell growth inhibition assay; type: cell-based
Outline: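 Karpas422 cells (2,000/well) in Alpha-MEM with 10% FBS dosed across 10 concentrations (top 5 uM) and grown six days at 37° C., 5% CO2. Viability read as ATPlite luminescence.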

[2] = Homo sapiens, SU-DHL-4, 48 h, read-out: Luciferase-Assay EC50, uM), SuDHL4-3xBCL6-TK-Luc cells, two days, high dose 10 uM
[3] = Homo sapiens, KARPAS-422, 144 h, read-out: Tumor Growth Inhibition in Karpas-422 (IC50, uM), Karpas422 cells, six days, ATPlite

Row | Structure (SMILES) | EC50 [1, 2] [µM] | Kd (BCL6 BTB domain) [nM] | IC50 (Karpas422 cells; [3]) [µM] | EC50 ([1]; read-out: Luciferase-Assay EC50, SuDHL4-3xBCL6-TK-Luc cells, two days, high dose 10 uM) [µM] | IC50 (Karpas422 cells; read-out: Tumor Growth Inhibition in Karpas-422 (IC50), Karpas422 cells, six days, ATPlite) [µM]
1 | C[C@H]1CN(C)CCN1c1cc(NC(=O)Cn2cc(-c3cc(Cl)c(O)c(C(N)=O)c3)c3c(=O)[nH]c(-c4ccccc4)nc32)c(Cl)cn1 [Compound I-261, (S)-3-chloro-5-(7-(2-((5-chloro-2-(2,4-dimethylpiperazin-1-yl)pyridin-4-yl)amino)-2-oxoethyl)-4-oxo-2-phenyl-4,7-dihydro-3H-pyrrolo[2,3-d]pyrimidin-5-yl)-2-hydroxybenzamide] | 0.65 | 39.8 | 0.225 |  | 
2 | CC(C)[C@@H]1CN(c2cc(NC(=O)Cn3cc(-c4cc(Cl)c(O)c(C(N)=O)c4)c4c(=O)n(C)cnc43)c(Cl)cn2)CCO1 [Compound I-205] | 0.248 | 43.6 | 0.457 |  | 
3 | Cn1cnc2c(c(-c3cc(C(N)=O)c(O)c(F)c3F)cn2CC(=O)Nc2cc(N3C[C@H]4CC[C@@H](C3)N4CC(F)(F)F)ncc2Cl)c1=O [Compound I-475] | 0.484 | 50.5 | 0.576 |  | 
4 | COc1c(O)c(C(N)=O)cc(-c2cn(CC(=O)Nc3cc(N4CCOC[C@@H]4C)ncc3Cl)c3ncn(C)c(=O)c23)c1F [Compound I-168] | 1.3 | 74 | 0.769 |  | 
5 | C[C@H]1CN(C2COC2)CCN1c1cc(NC(=O)Cn2cc(-c3cc(F)c(O)c(C(N)=O)c3)c3c(=O)n(C)cnc32)c(Cl)cn1 [Compound I-372] | 0.233 | 7.41 | 0.267 |  | 
6 | CC1OCCN(c2cc(NC(=O)Cn3cc(-c4cc(Cl)c(O)c(C(N)=O)c4)c4c(=O)n(C)cnc43)c(Cl)cn2)C1C (stereo not drawn) [Compound I-83] | 0.148 | 16 | 0.119 |  | 
7 | C[C@H]1CN(C)CCN1c1cc(NC(=O)Cn2cc(-c3cc(F)c(O)c(C(N)=O)c3)c3c(=O)n(CCC(=O)c4cnn(C)c4)cnc32)c(Cl)c(F)n1 [Compound I-430, (S)-5-(7-(2-((3-chloro-6-(2,4-dimethylpiperazin-1-yl)-2-fluoropyridin-4-yl)amino)-2-oxoethyl)-3-(3-(1-methyl-1H-pyrazol-4-yl)-3-oxopropyl)-4-oxo-4,7-dihydro-3H-pyrrolo[2,3-d]pyrimidin-5-yl)-3-fluoro-2-hydroxybenzamide] | 0.622 | 23.2 | 0.38 |  | 
8 | C[C@H]1COCCN1c1cc(NC(=O)Cn2cc(-c3cc(Cl)c(O)c(C(N)=O)c3)c3c(=O)n(C)c(N4CCC4)nc32)c(Cl)cn1 [Compound I-270, (S)-5-(2-(azetidin-1-yl)-7-(2-((5-chloro-2-(3-methylmorpholino)pyridin-4-yl)amino)-2-oxoethyl)-3-methyl-4-oxo-4,7-dihydro-3H-pyrrolo[2,3-d]pyrimidin-5-yl)-3-chloro-2-hydroxybenzamide] | 2.31 | 63 | 3.82 |  | 
9 | Cn1cnc2c(c(-c3cc(Cl)c(O)c(C(N)=O)c3)cn2CC(=O)Nc2cc(N3CCOC(C(F)(F)F)C3)ncc2Cl)c1=O (stereo not drawn) [Compound I-258] |  | 100 |  | 0.549 | 0.491
10 | C[C@H]1COCCN1c1cc(NC(=O)Cn2cc(-c3cc(C(N)=O)c(O)c(Cl)c3F)c3c(=O)n(C)cnc32)c(Cl)cn1 [Compound I-167] | 2.81 | 299 | 2.34 |  | 
11 | Cn1cnc2c(c(-c3cc(F)c(O)c(C(N)=O)c3)cn2CC(=O)Nc2cc(N3CCOCC3)ncc2F)c1=O [Compound I-217] | 0.727 | 26.6 | 0.382 |  | 
12 | CO[C@H]1CN(c2cc(NC(=O)Cn3cc(-c4cc(C(N)=O)c(O)c(F)c4F)c4c(=O)n(C)cnc43)c(Cl)c(F)n2)C[C@H]1F [Compound I-441] | 0.324 | 22.3 | 0.338 |  | 
13 | C[C@H](C1CC1)N1CCN(c2cc(NC(=O)Cn3cc(-c4cc(C(N)=O)c(O)c(F)c4F)c4c(=O)n(C)cnc43)c(Cl)c(F)n2)[C@@H](C)C1 [Compound I-455] | 0.307 | 11.2 | 0.204 |  | 
14 | Cn1cnc2c(c(-c3cc(F)c(O)c(C(N)=O)c3)cn2CC(=O)Nc2cc(N3CCCC3)nc(F)c2Cl)c1=O [Compound I-419] | 0.348 | 5.85 | 0.22 |  | 
15 | COc1cc(NC(=O)Cn2cc(-c3cc(Cl)c(O)c(C(N)=O)c3)c3c(=O)n(C)c(O)nc32)c(Cl)cn1 [Compound I-290] | 10 | 18400 | 10 |  | 
16 | CC1N=CC(C#CCn2cnc3c(c(-c4cc(C(N)=O)c(O)c(F)c4F)cn3CC(=O)Nc3cc(N4CCN(C)C[C@@H]4C)nc(F)c3Cl)c2=O)=N1 (stereo partly drawn) [Compound I-456] | 0.0858 | 1.87 | 0.0554 |  | 
17 | C[C@H]1COCCN1c1cc(NC(=O)Cn2cc(-c3cc(F)c(O)c(C(N)=O)c3F)c3c(=O)n(C)cnc32)c(Cl)c(F)n1 [Compound I-472] | 3.8 | 55.7 | 10 |  | 
18 | CN1CC2CCC(C1)N2c1cc(NC(=O)Cn2cc(-c3cc(C(N)=O)c(O)c(F)c3F)c3c(=O)n(C)cnc32)c(Cl)cn1 [Compound I-320] | 1.15 | 48.4 | 0.979 |  | 
19 | C[C@H]1CN(C2COC2)CCN1c1cc(NC(=O)Cn2cc(-c3cc(C(N)=O)c(O)c(F)c3F)c3c(=O)n(C)cnc32)c(Cl)c(F)n1 [Compound I-437] | 0.231 | 11.3 | 0.124 |  | 

Row | Structure (SMILES) | EC50 [1, 2] [µM] | Kd (BCL6 BTB domain) [nM] | IC50 (Karpas422 cells; [3]) [µM] | EC50 ([1]; read-out: Luciferase-Assay EC50, SuDHL4-3xBCL6-TK-Luc cells, two days, high dose 10 uM) [µM] | IC50 (Karpas422 cells; read-out: Tumor Growth Inhibition in Karpas-422 (IC50), Karpas422 cells, six days, ATPlite) [µM]
20 | CN1CCN(c2cc(NC(=O)Cn3cc(-c4cc(F)c(O)c(C(N)=O)c4)c4c(=O)n(CC#Cc5cnn(C)c5)cnc43)c(Cl)cn2)CC1 [Compound I-478] | 0.366 | 4.58 | 0.182 |  | 
21 | Cn1cc2cc(NC(=O)Cn3cc(-c4cc(Cl)c(O)c(C(N)=O)c4)c4c(=O)n(C)cnc43)c(Cl)cc2n1 [Compound I-182] | 1.41 | 86.3 | 1.03 |  | 
22 | C[C@H]1CNCCN1c1cc(NC(=O)Cn2cc(-c3cc(Cl)c(O)c(C(N)=O)c3)c3c(=O)n(C)cnc32)c(Cl)cn1 [Compound I-342] | 0.312 | 11.3 | 0.27 |  | 
23 | CN1CC2CN(c3cc(NC(=O)Cn4cc(-c5cc(Cl)c(O)c(C(N)=O)c5)c5c(=O)n(C)cnc54)c(Cl)cn3)CCN2C1=O (stereo not drawn) [Compound I-238] | 0.588 | 12.1 | 0.291 |  | 
24 | Cn1cnc2c(c(-c3cc(C(N)=O)c(O)c(F)c3F)cn2CC(=O)Nc2cc(N3Cc4ccncc4C3)ncc2Cl)c1=O [Compound I-468] | 0.461 | 23.5 | 0.417 |  | 
25 | Cn1cnc2c(c(-c3cc(Cl)c(O)c(C(N)=O)c3)cn2CC(=O)Nc2ccc([N+](=O)[O-])cc2Cl)c1=O [Compound I-385] | 0.312 | 38.4 | 0.335 |  | 
26 | Cn1cnc2c(c(-c3cc(Cl)c(O)c(C(N)=O)c3)cn2CC(=O)Nc2cc(N3CC4CC(C3)O4)ncc2Cl)c1=O [Compound I-282] | 0.669 | 21.3 | 0.489 |  | 
27 | Cn1cnc2c(c(-c3cc(Cl)c(O)c(C(N)=O)c3)cn2CC(=O)Nc2cc(N3C4CCC3CN(CC(F)(F)F)C4)ncc2Cl)c1=O [Compound I-466] | 3.81 | 519 | 0.773 |  | 
28 | C[C@H]1COCCN1c1cc(NC(=O)Cn2cc(-c3cc(Cl)c(O)c(C(N)=O)c3)c3c(=O)n(C)cnc32)c(Cl)c(F)n1 [Compound I-235] | 0.139 | 14 | 0.138 |  | 
29 | CN(C)C1CN(c2cc(NC(=O)Cn3cc(-c4cc(Cl)c(O)c(C(N)=O)c4)c4c(=O)n(C)cnc43)c(Cl)cn2)C1 [Compound I-347] | 0.603 | 57.4 | 0.454 |  | 
30 | Cn1cnc2c(c(-c3cc(Cl)c(O)c(C(N)=O)c3)cn2CC(=O)Nc2cc(N3C4CCC3CC4)ncc2Cl)c1=O [Compound I-125] | 3.76 | 30 | 0.407 |  | 
31 | Cn1cnc2c(c(-c3cc(F)c(O)c(C(N)=O)c3)cn2CC(=O)Nc2cc(N3CC4CCC(C3)O4)ncc2Cl)c1=O [Compound I-176] | 0.239 | 6.06 | 0.137 |  | 
32 | Cn1cnc2c(c(-c3cc(Cl)c(O)c(C(N)=O)c3)cn2CC(=O)Nc2cc(N3CC4CC3CN4CC(F)(F)F)ncc2Cl)c1=O (stereo not drawn) [Compound I-362] | 0.226 | 38 | 0.337 |  | 
33 | Cc1nc2c(c(-c3cc(F)c(O)c(C(N)=O)c3)cn2CC(=O)Nc2cc(N3CC(C)(C)NC(C)(C)C3)ncc2Cl)c(=O)n1C [Compound I-243] | 0.19 | 12.4 | 0.134 |  | 
34 | C[C@H]1CN(CC2CC2)CCN1c1cc(NC(=O)Cn2cc(-c3cc(C(N)=O)c(O)c(F)c3F)c3c(=O)n(C)cnc32)c(Cl)c(F)n1 [Compound I-443] | 0.285 | 18.6 | 0.149 |  | 
35 | C[C@H]1CN(C2COC2)CCN1c1cc(NC(=O)Cn2cc(-c3cc(Cl)c(O)c(C(N)=O)c3)c3c(=O)n(C)c(C(F)(F)F)nc32)c(Cl)cn1 [Compound I-371] | 0.141 | 39.5 | 0.288 |  | 
36 | Cn1cnc2c(c(-c3cc(Cl)c(O)c(C(N)=O)c3)cn2CC(=O)Nc2cc(N3CC4CC4C3)ncc2Cl)c1=O (stereo not drawn) [Compound I-155] | 0.923 | 32.6 | 1.55 |  | 
37 | Cc1nc2c(c(-c3cc(Cl)c(O)c(C(N)=O)c3)cn2CC(=O)Nc2cc(N3CCN(C4COC4)C[C@@H]3C)nc(F)c2Cl)c(=O)n1C [Compound I-434] | 0.0381 | 5.45 | 0.05 |  | 
